Experimental data reported in patent publication EP0168350B1, “Certain ring-fused pyrazolo [3,4-d]-pyridin-3-one derivatives” (CIBA-GEIGY AG, priority 1984, dated 1986).
Where a name gives a salt, the structure may show the parent alone.

Key:
benzodiazepine receptor = assay: in vitro benzodiazepine receptor binding assay (displacement of tritiated flunitrazepam); conditions: concentration inhibiting specific binding of 0.5 nM tritiated flunitrazepam by 50 %; synaptosomal membranes from rat fore-brain, pH 7.5
Method: The benzodiazepine receptor binding properties indicate of the nervous system regulatory activity of said new compounds are determined in the receptor binding assay in vitro, e.g. similarly to that in Nature 266, 732 ( 977) or Proc. Nat. Acad. Sci. USA 74, 3805 (1977). When tritiated flunitrazepam is used, the interaction of other drugs with said receptor can be readily assessed thus; Synaptosnal membranes from rat fore-brain are incubated at 0-5 for 30 minutes with 0.5 nM tritiated flunitrazepam and various concentrations of the test substance in a buffer medium maintained at pH 7.5. Solutions of the various concentrations of test substance are prepared by dilution of a […] stock solution in dimethylacetamide-ethanol (1:10) with 50 mM pH 7.5 Tris-HCI buffer. The membranes, containing the receptors with various amounts of tritiated flunitrazepam, are filtered onto glass fiber filters, which are then analyzed in a liquid scintillation counter. The concentration of the compounds of this invention, required to inhibit the specific binding of 0.5 nM of tritiated flunitrazepam by 50 %, the ICso, is determined graphically.

male Wistar rats = assay: Cook-Davidson conflict procedure for antianxiety effects; format: in vivo, rat; conditions: dose of about 10 mg/kg p.o.
Text: Anxiolytic effects are observed, for example, according to the Cook-Davidson conflict procedure, using male Wistar rats which are maintained at 80 % of normal body weight by dietary-, but not water-restriction. They are trained to press a lever within a conditioning chamber, also containing a liquid dipper, a house light, a speaker and a grid-floor. Both lever and grid are connected to an electrical shock source and the chamber is situated in a sound-attenuated room in which a white noise-source is activated during testing, in order to mask any extraneous auditory cues. Each session of 47 minutes duration consists of two alternating schedules. The first is a Variable Interval (VI) schedule of 30 seconds, lasting for 5 minutes, during which a sweetened, condensed milk reinforcement is delivered following the first lever-press after an average of 30 seconds have elapsed, and a drug-induced decrement of this performance is taken as an indication of a neurological deficit. Immediately following the VI-schedule both a 1000 Hz tone and a light-cue are activated, indicating the commencement of the second Fixed Ration (FR) schedule, lasting for 2 minutes, wherein the milk reinforcement is delivered concomitant with an electric foot shock immediately following the tenth response, thereby establishing a conflict situation. The intensity of said shock ranges between 2.0 and 3.6 mA, varying with each animal, in order to adjust them to about 25-100 responses during this schedule over the entire session. A drug-induced enhancement of performance during the FR-schedule is taken as indication of antianxiety effects. This increased performance is measured by the increased number of electric shocks taken during six FR sessions lasting 2 minutes each.

`O=C(Nc1ccccn1)c1cnc2c(c1O)CSCC2` [5H-7,8-dihydro-4-hydroxy-3-(N-2-pyridylcarbamoyl)thiopyrano[4,3-b]pyridine] showed an IC50 (benzodiazepine receptor) of ~8000 pM.
Work on `O=c1c2c[nH]c3c(c-2nn1-c1ccc(Cl)cc1)CSCC3` [Example 3a, 2-p-chlorophenyl-2,3,5,6,7,9-hexahydrothiopyrano[4,3-b]pyrazolo[3,4-d]pyridine-3-one] yielded an IC50 (benzodiazepine receptor) of ~350 pM.
`O=c1c2c[nH]c3c(c-2nn1-c1ccc(Cl)cc1)COCC3` [Example 4a, 2-p-chlorophenyl-2,3,5,6,7,9-hexahydropyrano[4,3-b]pyrazolo[3,4-d]pyridin-3-one] was tested, and the “active in the Cook-Davidson test for antianxiety effects” value (“active in the Cook-Davidson test” below) (male Wistar rats) was “active” and the IC50 (benzodiazepine receptor) was ~900 pM.
With `O=c1c2c[nH]c3c(c-2nn1-c1ccc(Cl)cc1)CCC3` [Example 7a, 2-p-chlorophenyl-2,3,5,6,7,8-hexahydrocyclopenta[b]pyrazolo[3,4-d]pyridin-3-one] the IC50 (benzodiazepine receptor) was ~500 pM.
Molecule `O=c1c2c[nH]c3c(c-2nn1-c1ccccc1)CCC3` [Example 7b, 2-phenyl-2,3,5,6,7,8-hexahydrocyclopenta[b]pyrazolo[3,4-d]pyridin-3-one] has an IC50 (benzodiazepine receptor) of ~1500 pM.
In the case of `Cl.O=c1c2c[nH]c3c(c-2nn1-c1ccc(Cl)cc1)CCCC3` [Example 8a, 2-p-chlorophenyl-2,3,6,7,8,9-hexahydropyrazolo[4,3-c]quinolin-3(5H)-one hydrochloride], the “active in the Cook-Davidson test” value (male Wistar rats) is reported as “active” and the IC50 (benzodiazepine receptor) is reported as ~3500 pM.
For `CC1CCc2[nH]cc3c(=O)n(-c4ccc(Cl)cc4)nc-3c2C1.Cl` (stereo not shown) [Example 8e, 2-p-chlorophenyl-2,3,6,7,8,9-hexahydro-8-methylpyrazolo[4,3-c]-quinolin-3(5H)-one hydrochloride], the “active in the Cook-Davidson test” value (male Wistar rats) was “active” and the IC50 (benzodiazepine receptor) was ~1000 pM.
With `O=c1c2c[nH]c3c(c-2nn1-c1ccc(Cl)cc1)CCCCC3` [Example 9a, 2-p-chlorophenyl-2,3,5,6,7,8,9,10-ocathydrocyclohepta[b]pyrazolo[3,4-d]pyridin-3-one hydrochloride] the “active in the Cook-Davidson test” value (male Wistar rats) was “active” and the IC50 (benzodiazepine receptor) was ~800 pM.
In the case of `COc1ccc(-n2nc3c4c([nH]cc-3c2=O)CCCC4)cc1` [Example 12c, 2-(4-methoxyphenyl)-2,3,6,7,8,9-hexahydropyrazolo[4,3-c]quinolin-3(5H)-one], the IC50 (benzodiazepine receptor) is reported as ~600 pM.
